US7626076B2, “Transgenic mouse whose genome comprises a homozygous disruption of its α1G gene, a method of preparing the same and use thereof” (Orient Bio., Inc., priority 2002, dated 2009)

How the values were obtained:
Type in all cases: in vivo, mouse
[1] = test system: wild-type and α1G −/− mice; assay: Thalamic field activity (depth electrodes) and epidural EEG after (RS)-baclofen in freely moving animals; conditions: 30 mg/kg i.p.
Protocol: To confirm the result of Example 6, the present inventors examined the field activity of thalamic nuclei using depth electrodes in freely moving animals. […] To examine the thalamic SWDs, the present inventors injected (RS)-baclofen i.p. at 30 mg/kg instead of the dose, i.e., 20 mg/kg, used previously (FIG. 4B). […] The administration of baclofen synchronized all thalamic activities into 2-3 Hz SWDs in wild-type nice (FIG. 5B, left). In the α1G −/− thalamus, however, baclofen reduced the amplitudes of peaks in a wide range of frequency, as if it caused general desynchronization (FIG. 5B, right).

[2] = test system: wild-type and α1G −/− mice; assay: SWD generation in epidural EEG after systemic injection of absence seizure-inducing agents; conditions: for SWD generation in epidural EEG: α1G −/− mice
Source text: To examine the role of α1G in the generation of SWDs in vivo, the present inventors systematically [“systemic” and “systematic” are different] injected into α1G −/− mice and wild-type mice either γ-butyrolactone, a prodrug of γ-hydroxybutyric acid, or (RS)-baclofen. Absence seizures induced by these drugs are characterized by bilaterally synchronous SWDs and have been associated with behavioral arrest, facial myoclonus, and vibrissal twitching.

[3] = test system: wild-type and α1G −/− mice; assay: Convulsive seizures induced by 4-AP (EEG and behavioral seizure score)
Source text: The present inventors tested whether the seizure resistance of α1G −/− mice was specific to absence seizures. […] The EEG pattern of these ictal discharges was quite different from that observed in the spike-and-wave seizures induced by baclofen or bicuculline.
The below scores grade the seizures according to behavioral seizures as monitored by video.
1: mild tremors of the head
2: whole body tremors with loss of postural control
3: erratic running, erratic jumping, or tonic-clonic movement of the limbs
4: tonic extension of the whole body or death

[4] = test system: wild-type and α1G −/− mice; assay: EEG recording of cortex and thalamus after injection of BMB; conditions: 10 mg/kg into the peritoneal cavity
Protocol: Systematic administration or focal injection of bicuculline into the cortex has been known to evoke SWDs mainly originating from the territory of the cortex (Steriade and Contreras, Journal of Neurophysiology, 1998, 80, 1439-55). To determine the role of α1G in the cortex-dependent mechanism of SWDs, the present inventors examined the EEG pattern after injection of BMB into the peritoneal cavity of mice at 10 mg/kg.
However, because of the complexity of the bicuculline-induced seizures, the present inventors could not conclude whether there is any quantitative difference in the amplitude of the SWDs or in the time lag of SWD occurrences for the two types of mice (i.e., wild-type and α1G −/−). […] Thus, it seems that the BMB-induced SWDs observed here are also associated with other types of generalized seizures.

## NCC(CC(=O)O)c1ccc(Cl)cc1 (racemic) [(RS)-baclofen]
[1]; duration of SWDs significantly increased versus 20 mg/kg
  frequency of SWDs in epidural EEG: 2-3 Hz
[1]; wild-type thalamus
  frequency of SWDs in thalamus (field recording): 2-3 Hz
[1]; α1G −/− thalamus
  SWD generation in thalamus (field recording): no such synchronized activities were observed
[2]; wild-type mice, 20 mg/kg
  frequency of SWDs in epidural EEG: 3-4 Hz
[2]; 20 mg/kg
  SWD generation in epidural EEG: marked resistance to the generation of SWDs

## Nc1ccncc1 [4-AP, 4-aminopyridine]
[3]; 2 mg/kg into the peritoneal cavity, C57BL/6J and 129/sv
  mice that developed seizures: 25%
[3]; 10 mg/kg into the peritoneal cavity, C57BL/6J and 129/sv
  mice that developed tonic-clonic seizures: All of the mice
[3]; 10 mg/kg, both wild-type and α1G −/− mice
  time to vigorous ictal discharges after injection: 30 to 40 min
[3]; seizure score 0-4, 2 mg/kg and 10 mg/kg
  severity of induced seizures graded by behavioral symptoms, wild-type versus α1G −/− mice: no quantitative difference

## C[N+]1(C)CCc2cc3c(cc2[C@H]1[C@@H]1OC(=O)c2c1ccc1c2OCO1)OCO3.[Br-] [BMB, bicucullinemethobromide]
[4]
  time to initiation of seizure spikes in the cortex: within five minutes
[4]; α1G −/− mice
  SWD generation in EEG: exhibited SWD-like activities

## O=C1CCCO1 [γ-butyrolactone]
[2]; wild-type mice, 70 mg/kg
  frequency of paroxysmal SWDs in epidural EEG: 3-5 Hz
[2]; 70 mg/kg
  SWD generation in epidural EEG: did not display typical SWD patterns
